Where two headings read alike, the source gives them in different places. Values belong to the molecule of their own block, whether it stands above or below them.
Experiments:
Type in all cases: cell-based
[1] = test system: OCI-LY3 cells; assay: Resazurin cell viability (proliferation) assay in OCI-LY3 DLBCL cells; conditions: OCI-LY3 cells (BTK independent), 72 h, 50% growth inhibition vs vehicle, read-out: OCI-LY3 Prol GI50
Method in brief: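 Cells were seeded at 1×10^4 per well and dosed 3 h later: 8-point 1:4 dilutions from 10 μM (OCI-LY3), in triplicate, 72 h at 37 °C. Resazurin (13 μg/ml final) was added for the last 2 h and fluorescence read at 530/600 nm. GI50 is relative to DMSO vehicle, typically from ≥2 independent experiments.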

[2] = test system: TMD8 cells; assay: Resazurin cell viability (proliferation) assay in TMD8 DLBCL cells; conditions: TMD8 cells (BTK dependent), 72 h, 50% growth inhibition vs vehicle, read-out: TMD8 Prol GI50
Method in brief: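 TMD8 cells were seeded at 1×10^4 per well and treated 3 h later with compound, in an 8-point 1:4 dilution series starting at 1 μM, or DMSO, for 72 h at 37° C. Resazurin was added at 13 μg/ml final for the last 2 h, and fluorescence was read at ex 530/em 600 nm. GI50 versus vehicle was derived by curve fitting from triplicates.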

[3] = target: T1, BTK-GFP (Homo sapiens, UniProt Q06187+Q96SW2); assay: BTK-GFP protein abundance flow cytometry assay in HEK293A cells; conditions: HEK293A BTK-GFP-iresRFP cells, 24 h; for DC50: GFP signal by flow cytometry, concentration at which 50% maximal degradation was observed; for BTK deg Amax: % protein remaining at the concentration at which maximum degradation is seen
T1 construct: expressed in transfected cells; host or cells: HEK293A (Invitrogen R70507), lentiviral transduction with pLenti6-BTK-GFP-Ires-RFP, blasticidin selection
T1 sequence (Q06187 whole entry): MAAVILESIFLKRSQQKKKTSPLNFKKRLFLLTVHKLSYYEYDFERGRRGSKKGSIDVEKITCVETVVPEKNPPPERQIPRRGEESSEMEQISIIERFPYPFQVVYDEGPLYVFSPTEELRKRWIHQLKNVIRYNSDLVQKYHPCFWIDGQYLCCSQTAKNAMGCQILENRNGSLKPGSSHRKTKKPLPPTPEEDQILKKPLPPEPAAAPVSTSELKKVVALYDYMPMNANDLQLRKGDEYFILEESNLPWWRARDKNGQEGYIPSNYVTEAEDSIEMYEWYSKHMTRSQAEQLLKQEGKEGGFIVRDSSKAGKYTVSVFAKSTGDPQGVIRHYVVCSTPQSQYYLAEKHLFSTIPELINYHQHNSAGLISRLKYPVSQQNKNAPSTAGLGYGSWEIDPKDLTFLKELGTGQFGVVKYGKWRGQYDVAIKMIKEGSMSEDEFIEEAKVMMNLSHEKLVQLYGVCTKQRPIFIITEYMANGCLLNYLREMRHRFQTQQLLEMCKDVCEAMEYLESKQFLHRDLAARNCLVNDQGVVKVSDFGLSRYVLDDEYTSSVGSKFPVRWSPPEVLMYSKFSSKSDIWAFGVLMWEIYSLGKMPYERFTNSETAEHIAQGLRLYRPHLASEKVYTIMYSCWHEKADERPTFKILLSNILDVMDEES
T1 sequence (Q96SW2 whole entry): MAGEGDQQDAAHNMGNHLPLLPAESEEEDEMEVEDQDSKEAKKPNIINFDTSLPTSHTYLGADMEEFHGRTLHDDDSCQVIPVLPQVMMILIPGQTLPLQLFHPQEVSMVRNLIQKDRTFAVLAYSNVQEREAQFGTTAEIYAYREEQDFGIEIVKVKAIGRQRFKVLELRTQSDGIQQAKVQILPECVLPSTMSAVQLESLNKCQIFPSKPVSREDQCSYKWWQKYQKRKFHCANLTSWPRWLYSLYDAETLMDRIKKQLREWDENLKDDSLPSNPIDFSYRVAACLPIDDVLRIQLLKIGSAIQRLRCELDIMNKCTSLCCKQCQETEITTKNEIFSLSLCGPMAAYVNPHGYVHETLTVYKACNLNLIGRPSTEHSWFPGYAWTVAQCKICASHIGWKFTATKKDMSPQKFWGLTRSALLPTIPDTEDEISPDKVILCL
T1 sequence (Q16531 whole entry partner): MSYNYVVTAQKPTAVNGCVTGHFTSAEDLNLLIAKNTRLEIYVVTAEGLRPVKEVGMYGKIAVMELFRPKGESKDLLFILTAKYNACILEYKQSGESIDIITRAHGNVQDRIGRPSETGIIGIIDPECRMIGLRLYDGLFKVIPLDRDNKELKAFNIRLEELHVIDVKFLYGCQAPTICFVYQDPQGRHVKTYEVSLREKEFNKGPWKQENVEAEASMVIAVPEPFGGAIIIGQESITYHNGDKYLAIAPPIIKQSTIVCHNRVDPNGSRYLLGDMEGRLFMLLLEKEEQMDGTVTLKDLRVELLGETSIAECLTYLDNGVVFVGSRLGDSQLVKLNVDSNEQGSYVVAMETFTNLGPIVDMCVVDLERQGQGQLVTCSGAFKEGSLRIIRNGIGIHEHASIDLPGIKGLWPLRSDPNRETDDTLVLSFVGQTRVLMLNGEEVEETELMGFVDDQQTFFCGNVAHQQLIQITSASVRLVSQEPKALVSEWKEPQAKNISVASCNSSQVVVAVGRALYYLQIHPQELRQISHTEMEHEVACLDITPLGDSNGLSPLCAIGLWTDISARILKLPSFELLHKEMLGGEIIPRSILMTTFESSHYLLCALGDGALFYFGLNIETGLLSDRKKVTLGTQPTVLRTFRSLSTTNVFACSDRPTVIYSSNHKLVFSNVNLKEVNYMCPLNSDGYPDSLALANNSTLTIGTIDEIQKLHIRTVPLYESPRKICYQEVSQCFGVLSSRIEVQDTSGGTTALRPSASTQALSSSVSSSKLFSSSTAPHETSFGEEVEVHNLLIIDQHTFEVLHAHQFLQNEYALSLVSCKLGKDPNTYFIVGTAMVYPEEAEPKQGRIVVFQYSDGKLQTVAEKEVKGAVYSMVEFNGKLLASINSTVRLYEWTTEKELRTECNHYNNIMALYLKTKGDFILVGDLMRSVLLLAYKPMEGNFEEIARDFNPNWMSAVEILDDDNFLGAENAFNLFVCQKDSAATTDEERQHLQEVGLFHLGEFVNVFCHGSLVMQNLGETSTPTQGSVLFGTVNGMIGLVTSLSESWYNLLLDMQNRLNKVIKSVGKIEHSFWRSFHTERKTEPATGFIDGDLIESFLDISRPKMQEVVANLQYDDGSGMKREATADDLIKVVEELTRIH
Method in brief: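 HEK293A cells stably expressing bicistronic BTK-GFP-IRES-RFP (C-terminal GFP tag) via lentiviral vector. Degradation read by flow cytometry as loss of GFP signal after degrader treatment. DC50 is concentration giving 50% maximal degradation; Amax is % protein remaining at maximal degradation.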

Compound: Cc1c(NC(=O)c2ccc(C(C)(C)O)cc2F)cc(F)cc1-c1ncnc2[nH]c(-c3ccc(CN4CCC5(CC4)CN(CCNC(=O)c4ccc(Cl)c(N6CCC(=O)NC6=O)c4)CCO5)cc3)cc12 [Compound 37, N-(3-(6-(4-((4-(2-(4-chloro-3-(2,4-dioxotetrahydropyrimidin-1(2H)-yl)benzamido)ethyl)-1-oxa-4,9-diazaspiro[5.5]undecan-9-yl)methyl)phenyl)-7H-pyrrolo[2,3-d]pyrimidin-4-yl)-5-fluoro-2-methylphenyl)-2-fluoro-4-(2-hydroxypropan-2-yl)benzamide]
GI50 ([1]; Homo sapiens): 4.22 µM
GI50 ([2]; Homo sapiens): 0.00193 µM
DC50 [3]: 0.0113 µM
BTK deg Amax [3]: 6.5%

Compound: COc1ccc(C(=O)N2CCC(O[C@H]3CC[C@@H](OCc4ccc(-c5cc6c(-c7cc(F)cc(NC(=O)c8ccc(C(C)(C)O)cc8F)c7C)ncnc6[nH]5)cc4)CC3)CC2)cc1N1CCC(=O)NC1=O [Compound 41, N-(3-(6-(4-((((1s,4s)-4-((1-(3-(2,4-dioxotetrahydropyrimidin-1(2H)-yl)-4-methoxybenzoyl)piperidin-4-yl)oxy)cyclohexyl)oxy)methyl)phenyl)-7H-pyrrolo[2,3-d]pyrimidin-4-yl)-5-fluoro-2-methylphenyl)-2-fluoro-4-(2-hydroxypropan-2-yl)benzamide]
GI50 [1]: > 10 µM
GI50 [2]: 0.0175 µM
DC50 [3]: 0.0124 µM
BTK deg Amax [3]: 4.4%

Compound: Cc1c(NC(=O)c2ccc(C(C)(C)O)cc2F)cc(F)cc1-c1ncnc2[nH]c(-c3ccc(CNCCCCCN(C)C(=O)c4ccc(Cl)c(N5CCC(=O)NC5=O)c4)cc3)cc12 [Compound 42, 4-chloro-3-(2,4-dioxotetrahydropyrimidin-1(2H)-yl)-N-(5-((4-(4-(5-fluoro-3-(2-fluoro-4-(2-hydroxypropan-2-yl)benzamido)-2-methylphenyl)-7H-pyrrolo[2,3-d]pyrimidin-6-yl)benzyl)amino)pentyl)-N-methylbenzamide]
GI50 ([1]; Homo sapiens): 8.92 µM
GI50 ([2]; Homo sapiens): 0.00534 µM
DC50 [3]: 0.0595 µM
BTK deg Amax [3]: 8.8%

Compound: COc1ccc(C(=O)N2CCC(O[C@H]3CC[C@H](Oc4ccc(-c5cc6c(-c7cc(F)cc(NC(=O)c8ccc(C(C)(C)O)cc8F)c7C)ncnc6[nH]5)cc4)CC3)CC2)cc1N1CCC(=O)NC1=O [Compound 46, N-(3-(6-(4-(((1r,4r)-4-((1-(3-(2,4-dioxotetrahydropyrimidin-1(2H)-yl)-4-methoxybenzoyl)piperidin-4-yl)oxy)cyclohexyl)oxy)phenyl)-7H-pyrrolo[2,3-d]pyrimidin-4-yl)-5-fluoro-2-methylphenyl)-2-fluoro-4-(2-hydroxypropan-2-yl)benzamide]
GI50 [1]: > 10 µM
GI50 [2]: 0.00359 µM
DC50 [3]: 0.0017 µM
BTK deg Amax [3]: 3.6%

Compound: Cc1c(NC(=O)c2ccc(C(C)(C)O)cc2F)cc(F)cc1-c1ncnc2[nH]c(-c3ccc(CN4CCC5(CC4)CN(CCCNC(=O)c4ccc(Cl)c(N6CCC(=O)NC6=O)c4)CCO5)cc3)cc12 [Compound 48, N-(3-(6-(4-((4-(3-(4-chloro-3-(2,4-dioxotetrahydropyrimidin-1(2H)-yl)benzamido)propyl)-1-oxa-4,9-diazaspiro[5.5]undecan-9-yl)methyl)phenyl)-7H-pyrrolo[2,3-d]pyrimidin-4-yl)-5-fluoro-2-methylphenyl)-2-fluoro-4-(2-hydroxypropan-2-yl)benzamide]
GI50 ([1]; Homo sapiens): 3.6 µM
GI50 ([2]; Homo sapiens): 0.00223 µM
DC50 [3]: 0.0208 µM
BTK deg Amax [3]: 9.4%

Compound: COc1ccc(C(=O)NCCN2CC3(CCN(Cc4ccc(-c5cc6c(-c7cc(F)cc(NC(=O)c8ccc(C(C)(C)O)cc8F)c7C)ncnc6[nH]5)cc4)CC3)C2)cc1N1CCC(=O)NC1=O [Compound 52, N-(3-(6-(4-((2-(2-(3-(2,4-dioxotetrahydropyrimidin-1(2H)-yl)-4-methoxybenzamido)ethyl)-2,7-diazaspiro[3.5]nonan-7-yl)methyl)phenyl)-7H-pyrrolo[2,3-d]pyrimidin-4-yl)-5-fluoro-2-methylphenyl)-2-fluoro-4-(2-hydroxypropan-2-yl)benzamide]
GI50 ([1]; Homo sapiens): > 10 µM
GI50 ([2]; Homo sapiens): 0.0227 µM
DC50 [3]: 2.58 µM
BTK deg Amax [3]: 43.7%

Compound: COc1ccc(C(=O)NCCN2CCC3(CCN(Cc4ccc(-c5cc6c(-c7cc(F)cc(NC(=O)c8ccc(C(C)(C)O)cc8F)c7C)ncnc6[nH]5)cc4)CC3)C2)cc1N1CCC(=O)NC1=O [Compound 53, N-(3-(6-(4-((2-(2-(3-(2,4-dioxotetrahydropyrimidin-1(2H)-yl)-4-methoxybenzamido)ethyl)-2,8-diazaspiro[4.5]decan-8-yl)methyl)phenyl)-7H-pyrrolo[2,3-d]pyrimidin-4-yl)-5-fluoro-2-methylphenyl)-2-fluoro-4-(2-hydroxypropan-2-yl)benzamide]
GI50 ([1]; Homo sapiens): > 10 µM
GI50 ([2]; Homo sapiens): 0.00314 µM
DC50 [3]: 0.15 µM
BTK deg Amax [3]: 17.4%

Now from value to molecule, other results behind:

GI50 ([1]; Homo sapiens): 4.44 µM
DC50 [3]: 0.0009 µM
BTK deg Amax [3]: 4.1%
Compound: COc1ccc(C(=O)N2CCC(CCN3CCC(Oc4ccc(-c5cc6c(-c7cc(F)cc(NC(=O)c8ccc(C(C)(C)O)cc8F)c7C)ncnc6[nH]5)cc4)CC3)CC2)cc1N1CCC(=O)NC1=O [Compound 38, N-(3-(6-(4-((1-(2-(1-(3-(2,4-dioxotetrahydropyrimidin-1(2H)-yl)-4-methoxybenzoyl)piperidin-4-yl)ethyl)piperidin-4-yl)oxy)phenyl)-7H-pyrrolo[2,3-d]pyrimidin-4-yl)-5-fluoro-2-methylphenyl)-2-fluoro-4-(2-hydroxypropan-2-yl)benzamide]
GI50 ([2]; Homo sapiens): 0.00051 µM

GI50 ([1]; Homo sapiens): 3.34 µM
DC50 [3]: 0.001 µM
BTK deg Amax [3]: 2.3%
Compound: COc1ccc(C(=O)N2CCC(CCN3CCC(COc4ccc(-c5cc6c(-c7cc(F)cc(NC(=O)c8ccc(C(C)(C)O)cc8F)c7C)ncnc6[nH]5)cc4)CC3)CC2)cc1N1CCC(=O)NC1=O [Compound 43, N-(3-(6-(4-((1-(2-(1-(3-(2,4-dioxotetrahydropyrimidin-1(2H)-yl)-4-methoxybenzoyl)piperidin-4-yl)ethyl)piperidin-4-yl)methoxy)phenyl)-7H-pyrrolo[2,3-d]pyrimidin-4-yl)-5-fluoro-2-methylphenyl)-2-fluoro-4-(2-hydroxypropan-2-yl)benzamide]
GI50 ([2]; Homo sapiens): 0.00068 µM

GI50 ([1]; Homo sapiens): > 10 µM
DC50 [3]: 0.284 µM
BTK deg Amax [3]: 3.2%
Compound: COc1ccc(C(=O)N2CCN(CCNCCCOCc3ccc(-c4cc5c(-c6cc(F)cc(NC(=O)c7ccc(C(C)(C)O)cc7F)c6C)ncnc5[nH]4)cc3)CC2)cc1N1CCC(=O)NC1=O [Compound 45, N-(3-(6-(4-((3-((2-(4-(3-(2,4-dioxotetrahydropyrimidin-1(2H)-yl)-4-methoxybenzoyl)piperazin-1-yl)ethyl)amino)propoxy)methyl)phenyl)-7H-pyrrolo[2,3-d]pyrimidin-4-yl)-5-fluoro-2-methylphenyl)-2-fluoro-4-(2-hydroxypropan-2-yl)benzamide]
GI50 ([2]; Homo sapiens): 0.0191 µM

GI50 ([1]; Homo sapiens): 4.84 µM
DC50 [3]: 0.0703 µM
BTK deg Amax [3]: 49.4%
Compound: COc1ccc(C(=O)N2CCC3(CCN(Cc4ccc(-c5cc6c(-c7cc(F)cc(NC(=O)c8ccc(C(C)(C)O)cc8F)c7C)ncnc6[nH]5)cc4)C3)CC2)cc1N1CCC(=O)NC1=O [Compound 49, N-(3-(6-(4-((8-(3-(2,4-dioxotetrahydropyrimidin-1(2H)-yl)-4-methoxybenzoyl)-2,8-diazaspiro[4.5]decan-2-yl)methyl)phenyl)-7H-pyrrolo[2,3-d]pyrimidin-4-yl)-5-fluoro-2-methylphenyl)-2-fluoro-4-(2-hydroxypropan-2-yl)benzamide]
GI50 ([2]; Homo sapiens): 0.00535 µM

GI50 ([1]; Homo sapiens): 7.77 µM
DC50 [3]: 0.0012 µM
BTK deg Amax [3]: 4.1%
Compound: Cc1ccc(C(=O)N2CCC(OC3CCN(Cc4ccc(-c5cc6c(-c7cc(F)cc(NC(=O)c8ccc(C(C)(C)O)cc8F)c7C)ncnc6[nH]5)cc4)CC3)CC2)cc1N1CCC(=O)NC1=O [Compound 50, N-(3-(6-(4-((4-((1-(3-(2,4-dioxotetrahydropyrimidin-1(2H)-yl)-4-methylbenzoyl)piperidin-4-yl)oxy)piperidin-1-yl)methyl)phenyl)-7H-pyrrolo[2,3-d]pyrimidin-4-yl)-5-fluoro-2-methylphenyl)-2-fluoro-4-(2-hydroxypropan-2-yl)benzamide]
GI50 ([2]; Homo sapiens): 0.00066 µM

GI50 ([1]; Homo sapiens): 4.37 µM
DC50 [3]: 0.0008 µM
BTK deg Amax [3]: 3.9%
Compound: COc1ccc(C(=O)N2CCN(CCN3CCC(COc4ccc(-c5cc6c(-c7cc(F)cc(NC(=O)c8ccc(C(C)(C)O)cc8F)c7C)ncnc6[nH]5)cc4)CC3)CC2)cc1N1CCC(=O)NC1=O [Compound 51, N-(3-(6-(4-((1-(2-(4-(3-(2,4-dioxotetrahydropyrimidin-1(2H)-yl)-4-methoxybenzoyl)piperazin-1-yl)ethyl)piperidin-4-yl)methoxy)phenyl)-7H-pyrrolo[2,3-d]pyrimidin-4-yl)-5-fluoro-2-methylphenyl)-2-fluoro-4-(2-hydroxypropan-2-yl)benzamide]
GI50 ([2]; Homo sapiens): 0.00058 µM

Reference: US12441733B2, “Substituted 2,4-dioxotetrahydropyrimidines as intermediates in the synthesis of bruton's tyrosine kinase inhibitors” (Novartis AG, priority 2018, dated 2025)
